The experiment deals with HPK1 (MAP4K1) (Homo sapiens, UniProt Q92918). Kind of experiment: FRET Assay for HPK1 (MAP4K1): one step binding assay, displacement of labeled tracer. The settings on record: for inhibition at 1 µM: 1 μM compound; for inhibition at 1 µM / inhibition at 10 µM: FRET ratio 665/620, percent of control; for inhibition at 10 µM: 10 μM compound; for IC50: dose response curve, nonlinear regression. The source says:
FRET Assay for HPK1 (MAP4K1):
This is a one step binding assay based on the binding and displacement of the labeled tracer, where compound addition is followed by addition of the anti-GST tagged europium (Eu) as the donor and Alexa Fluor-labeled tracer as the acceptor. Simultaneous binding of both the tracer and GST-antibody to the kinase domain of HPK1 results in a high degree of FRET (fluorescence resonance energy transfer) from the anti-GST tagged europium (Eu) fluorophore to the Alexa Fluor® 647 fluorophore on the kinase tracer and this signal is reduced in presence of the inhibitor that can be measured.
Test compounds or reference compounds such as Sunitinib (Sigma) were dissolved in dimethylsulfoxide (DMSO) to prepare 10.0 mM stock solutions and diluted to the desired concentration. The final concentration of DMSO in the reaction was 3% (v/v). The assay mixture was prepared by mixing 4 nM of the Eu-Anti-GST Antibody and 10 nM MAP4K-1 enzyme in the Kinase buffer containing 50mM HEPES (pH 7.5), 10 mM MgCl2, 1 mM EGTA, 0.01% Brij-35 with or without the desired concentration of the compound. The reaction was incubated on ice for 15 mins. The pre-incubation step was followed by addition of the 20 nM Kinase Tracer 222 into the reaction mixture. After shaking for 5 min the reaction was further incubated for 1 hour at room temperature and this was kept at 4° C. and read on ARTEMIS reader as per the kit instructions (Thermo). […] The activity was calculated as percent of control reaction. IC50 values were calculated from dose response curve by nonlinear regression analysis using GraphPad Prism software.
Percentage inhibition at concentrations of 1.0 μM and 10.0 μM are given in the table along with IC50 (nM) details for selected examples.

Counter-ions that a name gives are not always drawn. Where only a bound is given, the exact number is not on record here.

Sequence of HPK1 (MAP4K1) (Q92918 whole entry): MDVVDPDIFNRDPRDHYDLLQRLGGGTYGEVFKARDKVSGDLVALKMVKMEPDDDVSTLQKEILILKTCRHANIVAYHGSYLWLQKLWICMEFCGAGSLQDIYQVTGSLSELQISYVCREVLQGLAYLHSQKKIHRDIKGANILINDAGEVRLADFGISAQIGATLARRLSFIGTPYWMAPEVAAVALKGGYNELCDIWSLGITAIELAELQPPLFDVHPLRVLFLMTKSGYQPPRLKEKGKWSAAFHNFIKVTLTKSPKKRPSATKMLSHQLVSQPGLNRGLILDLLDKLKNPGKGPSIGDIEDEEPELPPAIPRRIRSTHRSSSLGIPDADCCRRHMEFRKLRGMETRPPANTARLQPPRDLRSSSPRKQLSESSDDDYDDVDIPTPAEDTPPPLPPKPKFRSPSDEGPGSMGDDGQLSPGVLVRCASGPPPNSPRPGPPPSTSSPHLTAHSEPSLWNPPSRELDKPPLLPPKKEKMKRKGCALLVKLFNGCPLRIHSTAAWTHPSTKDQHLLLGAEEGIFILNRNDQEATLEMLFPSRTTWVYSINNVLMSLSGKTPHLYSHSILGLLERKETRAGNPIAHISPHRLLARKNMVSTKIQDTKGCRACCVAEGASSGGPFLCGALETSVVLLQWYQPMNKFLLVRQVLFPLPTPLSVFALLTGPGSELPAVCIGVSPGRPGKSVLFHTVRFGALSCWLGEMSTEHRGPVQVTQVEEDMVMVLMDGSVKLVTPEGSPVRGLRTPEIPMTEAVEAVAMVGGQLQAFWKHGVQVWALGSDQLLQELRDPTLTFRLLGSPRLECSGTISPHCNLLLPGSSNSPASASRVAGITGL

As for `C/C(Nc1cnn(C2COC2)c1)=C1/C(=O)Nc2cnc(-c3cnccc3C)cc21` [Example 52, (Z)-5-(4-Methylpyridin-3-yl)-3-(1-((1-(oxetan-3-yl)-1H-pyrazol-4-yl)amino)ethylidene)-1H-pyrrolo[2,3-c]pyridin-2(3H)-one], the inhibition (commonly the drop in the measured response relative to a control, in per cent) at 1 µM was 86.1%; the inhibition at 10 µM came to 84.9%; the IC50 (commonly the midpoint of a concentration-inhibition curve) is less than 50 nM.
In the same order, the values of `C/C(Nc1cc(C)n([C@@H](C)C#N)n1)=C1/C(=O)Nc2cnc(-c3cnccc3C)cc21` [Example 214, (S,Z)-2-(5-Methyl-3-((1-(5-(4-methylpyridin-3-yl)-2-oxo-1H-pyrrolo[2,3-c]pyridin-3(2H)-ylidene)ethyl)amino)-1H-pyrazol-1-yl)propanenitrile] are 69.7%, 67.7% and less than 50 nM.
Consider `C/C(Nc1cnn(C)c1)=C1/C(=O)Nc2cnc(-c3cncc(F)c3C)cc21` [Example 148, (Z)-5-(5-Fluoro-4-methylpyridin-3-yl)-3-(1-((1-methyl-1H-pyrazol-4-yl)amino)ethylidene)-1H-pyrrolo[2,3-c]pyridin-2(3H)-one], for which the inhibition at 1 µM amounted to 82.4%, the inhibition at 10 µM is 94% and the IC50 was less than 50 nM.
For the molecule `COc1cccc(F)c1-c1ccc2c(c1)/C(=C(\C)Nc1ccc(N3CCN(C4COC4)CC3)nc1)C(=O)N2` [Example 4, (Z)-5-(2-Fluoro-6-methoxyphenyl)-3-(1-((6-(4-(oxetan-3-yl)piperazin-1-yl)pyridin-3-yl)amino)ethylidene)indolin-2-one], the inhibition at 1 µM came to 90.1%, the inhibition at 10 µM was 91% and the IC50 was less than 50 nM.
On the same counts, the results for `C/C(Nc1cnn(C(C)(C)C#N)c1)=C1/C(=O)Nc2cnc(-c3cnccc3C)cc21` [Example 53, (Z)-2-Methyl-2-(4-((1-(5-(4-methylpyridin-3-yl)-2-oxo-1H-pyrrolo[2,3-c]pyridin-3(2H)-ylidene)ethyl)amino)-1H-pyrazol-1-yl)propanenitrile] are 87.1%, 85.4% and less than 50 nM.
For `COc1cc2c(cc1N/C(C)=C1\C(=O)Nc3ccc(-c4c(F)cccc4OC)cc31)CNCC2` [Example 12, (Z)-5-(2-Fluoro-6-methoxyphenyl)-3-(1-((6-methoxy-1,2,3,4-tetrahydroisoquinolin-7-yl)amino)ethylidene)indolin-2-one. PTSA salt], the inhibition at 1 µM turned out to be 48%, the inhibition at 10 µM was 55.8% and the IC50 was greater than 500 nM.
Take `COc1cccc(F)c1-c1cc2c(cc1Cl)NC(=O)/C2=C(/C)Nc1cnn(C)c1` [Example 20]: the inhibition at 1 µM is 85.2%, the inhibition at 10 µM is 80.1% and the IC50 is less than 50 nM.
As for `COc1cccc(F)c1-c1ccc2c(c1)/C(=C(\C)Nc1cnn(C)c1)C(=O)N2` [Example 10, (Z)-5-(2-Fluoro-6-methoxyphenyl)-3-(1-((1-methyl-1H-pyrazol-4-yl)amino)ethylidene)indolin-2-one], the inhibition at 1 µM is 82.6%, the inhibition at 10 µM amounted to 88.2% and the IC50 was less than 50 nM.
Take `C/C(Nc1cnn(C)c1)=C1/C(=O)Nc2cnc(-c3c(C)cccc3F)cc21` [Example 164, (Z)-5-(2-Fluoro-6-methylphenyl)-3-(1-((1-methyl-1H-pyrazol-4-yl)amino)ethylidene)-1H-pyrrolo[2,3-c]pyridin-2(3H)-one]: the inhibition at 1 µM was determined as 60.9%, the inhibition at 10 µM came out at 75.2% and the IC50 fell in the range of 50 to 100 nM.
Consider `C/C(Nc1cc(C)n(C[C@@H](C)O)n1)=C1/C(=O)Nc2cnc(-c3c(C)cccc3F)cc21` [Example 216, (R,Z)-5-(2-Fluoro-6-methylphenyl)-3-(1-((1-(2-hydroxypropyl)-5-methyl-1H-pyrazol-3-yl)amino)ethylidene)-1H-pyrrolo[2,3-c]pyridin-2(3H)-one], for which the inhibition at 1 µM was 72.1%, the inhibition at 10 µM came to 68.6% and the IC50 is less than 50 nM.
Consider `CC/C(Nc1cnn(C(C)(C)C#N)c1)=C1/C(=O)Nc2cnc(-c3cnccc3C)cc21` [Example 91, (Z)-2-Methyl-2-(4-((1-(5-(4-methylpyridin-3-yl)-2-oxo-1H-pyrrolo[2,3-c]pyridin-3(2H)-ylidene)propyl)amino)-1H-pyrazol-1-yl)propanenitrile], for which the inhibition at 1 µM was 79.7% and the IC50 was less than 50 nM.
Turning to `C/C(Nc1ccc(N2CCN(C)CC2)cc1)=C1/C(=O)Nc2ccc(F)cc21` [Example 6, (Z)-5-Fluoro-3-(1-((4-(4-methylpiperazin-1-yl)phenyl)amino)ethylidene)indolin-2-one], the inhibition at 1 µM was determined as 85.5%, the inhibition at 10 µM turned out to be 87.3% and the IC50 was less than 50 nM.
As to `CCn1nc(N/C(C)=C2\C(=O)Nc3cnc(-c4cnccc4C)cc32)cc1C` [Example 182, (Z)-3-(1-((1-Ethyl-5-methyl-1H-pyrazol-3-yl)amino)ethylidene)-5-(4-methylpyridin-3-yl)-1H-pyrrolo[2,3-c]pyridin-2(3H)-one], the inhibition at 1 µM amounted to 78.8%, the inhibition at 10 µM turned out to be 73% and the IC50 was less than 50 nM.
Turning to `COc1cccc(F)c1-c1ccc2c(c1)/C(=C(\C)Nc1ccc(N3CCN(C)CC3)cc1)C(=O)N2` [Example 2, (Z)-5-(2-Fluoro-6-methoxyphenyl)-3-(1-((4-(4-methylpiperazin-1-yl)phenyl)amino)ethylidene)indolin-2-one], the inhibition at 1 µM is 88.6%, the inhibition at 10 µM was 82.5% and the IC50 is less than 50 nM.
Turning to `C/C(Nc1cnn(CC[C@H](C)O)c1)=C1/C(=O)Nc2cnc(-c3cnccc3C)cc21` [Example 176, (S,Z)-3-(1-((1-(3-Hydroxybutyl)-1H-pyrazol-4-yl)amino)ethylidene)-5-(4-methylpyridin-3-yl)-1H-pyrrolo[2,3-c]pyridin-2(3H)-one], the inhibition at 1 µM turned out to be 75.4%, the inhibition at 10 µM stood at 62.3% and the IC50 is less than 50 nM.
`C/C(Nc1cc(C)n(C)n1)=C1/C(=O)Nc2ccc(-c3cnccc3C)cc21` [Example 194, (Z)-3-(1-((1,5-Dimethyl-1H-pyrazol-3-yl)amino)ethylidene)-5-(4-methylpyridin-3-yl)indolin-2-one]: the inhibition at 1 µM stood at 68.6%, the inhibition at 10 µM came to 66.6% and the IC50 was less than 50 nM.
With `C/C(Nc1ccc(N2CCOCC2)cc1)=C1/C(=O)Nc2cnc(-c3cnccc3C)cc21` [Example 59, (Z)-5-(4-Methylpyridin-3-yl)-3-(1-((4-morpholinophenyl)amino)ethylidene)-1H-pyrrolo[2,3-c]pyridin-2(3H)-one], the inhibition at 1 µM was determined as 78%, the inhibition at 10 µM is 78.2% and the IC50 is less than 50 nM.
Take `C/C(Nc1cc(C)n(CC(F)F)n1)=C1/C(=O)Nc2cnc(-c3cc(F)ccc3C)cc21` [Example 213, (Z)-3-(1-((1-(2,2-Difluoroethyl)-5-methyl-1H-pyrazol-3-yl)amino)ethylidene)-5-(5-fluoro-2-methylphenyl)-1H-pyrrolo[2,3-c]pyridin-2(3H)-one]: the inhibition at 1 µM is 60.2%, the inhibition at 10 µM worked out at 69.5% and the IC50 is less than 50 nM.
In the case of `COCCn1ccc(N/C(C)=C2\C(=O)Nc3cnc(-c4cnccc4C)cc32)n1` [Example 143, (Z)-3-(1-((1-(2-Methoxyethyl)-1H-pyrazol-3-yl)amino)ethylidene)-5-(4-methylpyridin-3-yl)-1H-pyrrolo[2,3-c]pyridin-2(3H)-one], the inhibition at 1 µM came out at 80.4%, the inhibition at 10 µM was determined as 83.8% and the IC50 was less than 50 nM.
Take `C/C(Nc1cc(C)n(C)n1)=C1/C(=O)Nc2cnc(-c3c(C)cccc3F)cc21` [Example 191, (Z)-3-(1-((1,5-dimethyl-1H-pyrazol-3-yl)amino)ethylidene)-5-(2-fluoro-6-methylphenyl)-1H-pyrrolo[2,3-c]pyridin-2(3H)-one]: the inhibition at 1 µM is 69.6%, the inhibition at 10 µM is 82.2% and the IC50 was less than 50 nM.
As for `C/C(Nc1cnn(C)c1)=C1/C(=O)Nc2cnc(-c3cncc(N)c3C)cc21` [Example 51, (Z)-5-(5-Amino-4-methylpyridin-3-yl)-3-(1-((1-methyl-1H-pyrazol-4-yl)amino)ethylidene)-1H-pyrrolo[2,3-c]pyridin-2(3H)-one], the inhibition at 1 µM was found to be 81.2%, the inhibition at 10 µM is 84.2% and the IC50 is less than 50 nM.
On the same counts, the results for `COc1ccncc1-c1cc2c(cn1)NC(=O)/C2=C(/C)Nc1cnn(C)c1` [Example 33, (Z)-5-(4-methoxypyridin-3-yl)-3-(1-((1-methyl-1H-pyrazol-4-yl)amino)ethylidene)-1H-pyrrolo[2,3-c]pyridin-2(3H)-one] are 91.6%, 87.8% and less than 50 nM.

The values are drawn from patent US20230009626A1 (ICHNOS SCIENCES S.A., priority 2018, published 2023).
